According to PMC5104425, “A Novel Selective Inhibitor of Delta-5 Desaturase Lowers Insulin Resistance and Reduces Body Weight in Diet-Induced Obese C57BL/6J Mice” (PLoS ONE, 2016):

Tests used:
Format in all cases: in vivo, C57BL/6J mice
DIO mice [1] = assay: Anti-obesity effects in DIO mice, 6-week treatment (HFD D12492): BW, calorie intake, observations
Description: In this report, we performed 3 independent studies in DIO mice to characterize anti-obesity effects of our D5D specific inhibitor. Male C57BL/6J mice were obtained from Charles River Laboratories (Yokohama, Japan) or CLEA Japan (Osaka, Japan). The mice were fed a laboratory chow and water ad libitum and housed in a 12-h light/dark cycle. Compound or vehicle was administered once daily between 15: 00–19:00 by oral gavage. Body weight (BW) and food intake were monitored throughout the experiment.
Mice were fed a high-fat diet (HFD) that has 60% kcal from fat and contains 0.09% (w/w) AA (D12492; Research diets, Inc., see S1 Table for fatty acid profile) from 5 weeks of age, and they were divided into 5 groups (7 animals per group) at 11 weeks of age based on BW and daily food intake. In this experiment, 30 mg/kg sibutramine, a […], was used as a positive control for anti-obesity effects. Mice were orally administered compound-326 at doses of 0.1, 1, and 10 mg/kg, sibutramine at a dose of 30 mg/kg, or vehicle for 6 weeks. After 6 weeks, blood concentrations of DGLA and AA under non-fasting condition were evaluated as pharmacodynamics (PD) markers, and oral glucose tolerance test (OGTT) was performed.

DIO mice [2] = assay: Indirect calorimetry test (energy expenditure, RER) in established DIO mice; details: 10 mg/kg
Description: To evaluate the effect on daily EE, DIO mice fed a HFD that has 41% kcal from fat and contains no AA (D12079B; Research diets, Inc., see S1 Table for fatty acids composition) for 50 weeks were used. At 55 weeks of age, DIO mice were divided into two weight-matched groups (7 animals per group) and treated with vehicle or 10 mg/kg compound-326 for 11 weeks. […] Indirect calorimetry test was performed on day1, 8, 15, 21, and 56 during the study. Daily EE was analyzed using ANCOVA with body mass as covariate. After the treatment period, mice were sacrificed and fat tissues were harvested to evaluate the weights.
Energy metabolism was evaluated using an Oxymax indirect calorimetry system (Columbus Instruments, Columbus, OH). Mice were individually housed in the chamber with a 12-h light/dark cycle. VO2 and VCO2 rates were determined with the following Oxymax system settings: air flow, 0.6 L/min; sample flow, 0.5 l/min; settling time, 10 min; and measuring time, 1 min. The system was calibrated against a standard gas mixture to measure O2 consumed (VO2, mL/kg/h) and CO2 generated (VCO2, mL/kg/h). Metabolic rate (VO2) and respiratory exchange ratio (RER; ratio of VCO2/VO2) were evaluated over a 24-h period. Energy expenditure was calculated as the product of the calorific value of oxygen (3.815+1.232×RER) and the volume of O2 consumed.

[3] = tested on: epididymal fat of DIO mice; assay: Satellite DIO mice, day 32: epididymal fat gene expression and BW; details: 10 mg/kg, 32 days
Description: Total RNA was extracted and purified using RNeasy Mini Kit (QIAGEN, USA). First-strand cDNA was synthesized using High Capacity cDNA Reverse Transcription Kits (Thermo Fisher, USA). The mRNA levels were quantified by an ABI Prism 7900 TaqMan PCR system (Thermo Fisher, USA) according to the manufacturer’s instruction using TaqMan® Universal PCR Mastermix with the primer-probe sets of TaqMan Gene Expression Assays (Thermo Fisher, USA) for the following genes: Ccl2 (chemokine (C-C motif) ligand 2; Mm99999056_m1), Cd68 (CD68 antigen; Mm03047343_m1), Adgre1 (adhesion G protein-coupled receptor E1; Mm00802529_m1), Tnf (tumor necrosis factor; Mm00443258_m1), Il6 (interleukin 6; Mm99999064), Lep (leptin; Mm00434759_m1), Adipoq (adiponectin; Mm00456425_m1), Fads2 ([…]; Mm00517221_m1), Fads1 ([…]; Mm00507605_m1), Ucp1 (uncoupling protein 1; Mm00494069_m1), Elovl3 (elongation of very long chain fatty acids 3; Mm00468164_m1), Cidea (cell death-inducing DNA fragmentation factor, alpha subunit-like effector A; Mm00432554_m1), Otop1 (otopetrin 1; Mm00554705_m1), and Rplp0 (ribosomal protein, large, P0; forward; 5'-[…]-3', reverse; 5'-[…]-3', probe (VIC-5'→3'-TAMRA); 5'-[…]-3'). The Rplp0 mRNA level was used as a reference and relative transcript levels were calculated with the comparative Ct method (2^-ΔΔCT) (Applied Bio-systems).
In 6 weeks administration study of compound-326 (10 mg/kg), satellite animals were prepared to evaluate the gene expression levels in epididymal fat at the intermediate point (day 32). Mice fed a HFD (D12079B; Research diets, Inc.) from 5 weeks of age were divided into 2 groups at the age of 8 weeks (11 animals per group), and were administered 10 mg/kg compound-326 or vehicle for 32 days. After the treatment period, mice were sacrificed and epididymal fat were harvested for mRNA analysis. […] (B) RT-qPCR was performed in epididymal fat tissue after 32 days treatment. Data are expressed as mean ± SE (n=11). *p≤ 0.05 vs. DIO vehicle by Aspin-Welch test. ¶¶p≤ 0.01 vs. DIO vehicle by Student's t-test.

## O=C1Cc2c(nc(OCC(F)(F)C(F)(F)F)n(-c3ccc(OCC(F)(F)F)cc3)c2=O)N1 [Compound-326, 2-(2,2,3,3,3-Pentafluoropropoxy)-3-[4-(2,2,2-trifluoroethoxy)phenyl]-5,7-dihydro-3H-pyrrolo[2,3-d]pyrimidine-4,6-dione]
DIO mice [1]; compound-326 10 mg/kg p.o. once daily, 6 weeks
  BW: gradual decrease in BW
DIO mice [1]; compound-326 0.1-10 mg/kg p.o., 6 weeks
  abnormal findings such as behavioral changes, diarrhea, or steatorrhea: No abnormal findings
DIO mice [1]; compound-326 at all doses (0.1, 1, 10 mg/kg), slight decrease at 10 mg/kg
  daily calorie intake: not altered significantly
DIO mice [1]; compound-326 lower doses (0.1 and 1 mg/kg) p.o., 6 weeks
  BW: not effective
DIO mice [2]; day 15, independent of decreased BW
  daily EE relative to body mass: increased
DIO mice [2]; days 1 and 8, vs vehicle
  daily EE (kcal/day) plotted against body mass: no difference
DIO mice [2]; days 21 and 56
  difference in daily EE lines vs vehicle: became more apparent
DIO mice [2]; relative to vehicle through the study, did not reach significance
  RER: lower
[3]
  Adgre1 gene expression level in epididymal fat: significantly decreased
  BW: no significant BW loss
  Ccl2 gene expression level in epididymal fat: significantly decreased
  Cd68 gene expression level in epididymal fat: significantly decreased
  Il6 gene expression level in epididymal fat: significantly decreased
